This note sets out measurements from article PMC8344243, “Design, synthesis, docking, ADMET studies, and anticancer evaluation of new 3-methylquinoxaline derivatives as VEGFR-2 inhibitors and apoptosis inducers” (Journal of Enzyme Inhibition and Medicinal Chemistry, 2021).

In one data set the target is T1, human VEGFR-2 (Homo sapiens, UniProt P35968).
T1 construct: endogenous in cells; host or cells: HepG2
Put plainly: In vitro VEGFR-2 enzyme inhibition assay (ELISA kit, HepG2 cell line). Format: biochemical. To be noted: human VEGFR-2 in HepG2 cell line. An excerpt: The synthesised compounds were estimated for their in vitro inhibition on human VEGFR-2 in HepG2 cell line; using ELISA kit[96] as described in Supplementary Data.
Background: ELISA stands for enzyme-linked immunosorbent assay.

In the next data set the test system is HepG2. Put plainly: MTT anti-proliferative assay, HepG2. Format: cell-based. To be noted: Homo sapiens, read-out: Cytotoxicity on cancer cells IC50, HepG2. Here is the method: (§1) In vitro cytotoxic activities of the synthesised compounds were evaluated against two different cancer cell lines; breast cancer (MCF-7) and hepatocellular carcinoma (HepG2) using standard MTT colorimetric assay as described by Mosmann[78]^,[79]. […].
(§2) The in vitro antiproliferative activities were assessed using the MTT assay protocol[78]^,[79]^,[95]. As shown in Supplementary Data.
A general note: Tetrazolium assays rely on reduction of a dye to a coloured formazan, in cell work by metabolically active cells.

A further data set relates to MCF-7. As to the kind of experiment: MTT anti-proliferative assay, MCF-7. Format: cell-based. To be noted: for IC50: Homo sapiens, MCF7, MCF-7, MTT assay, read-out: Cytotoxicity on cancer cells IC50, MCF-7. As to the method: as §1, §2
Another data set relates to primary rat hepatocytes. Put plainly: Cytotoxicity against primary rat hepatocytes (normal hepatic cells). Format: cell-based. To be noted: HepG2 vs primary rat hepatocytes. The text has this:
(§3) It is of high importance for anticancer agents to have minimum side effects on normal cells. […].

Experiment in data set [1]: as above
Format: cell-based. To be noted: rat, primary rat hepatocytes.
Description: as §3

Bounds are passed on as bounds.

T1 sequence (P35968 20-1356): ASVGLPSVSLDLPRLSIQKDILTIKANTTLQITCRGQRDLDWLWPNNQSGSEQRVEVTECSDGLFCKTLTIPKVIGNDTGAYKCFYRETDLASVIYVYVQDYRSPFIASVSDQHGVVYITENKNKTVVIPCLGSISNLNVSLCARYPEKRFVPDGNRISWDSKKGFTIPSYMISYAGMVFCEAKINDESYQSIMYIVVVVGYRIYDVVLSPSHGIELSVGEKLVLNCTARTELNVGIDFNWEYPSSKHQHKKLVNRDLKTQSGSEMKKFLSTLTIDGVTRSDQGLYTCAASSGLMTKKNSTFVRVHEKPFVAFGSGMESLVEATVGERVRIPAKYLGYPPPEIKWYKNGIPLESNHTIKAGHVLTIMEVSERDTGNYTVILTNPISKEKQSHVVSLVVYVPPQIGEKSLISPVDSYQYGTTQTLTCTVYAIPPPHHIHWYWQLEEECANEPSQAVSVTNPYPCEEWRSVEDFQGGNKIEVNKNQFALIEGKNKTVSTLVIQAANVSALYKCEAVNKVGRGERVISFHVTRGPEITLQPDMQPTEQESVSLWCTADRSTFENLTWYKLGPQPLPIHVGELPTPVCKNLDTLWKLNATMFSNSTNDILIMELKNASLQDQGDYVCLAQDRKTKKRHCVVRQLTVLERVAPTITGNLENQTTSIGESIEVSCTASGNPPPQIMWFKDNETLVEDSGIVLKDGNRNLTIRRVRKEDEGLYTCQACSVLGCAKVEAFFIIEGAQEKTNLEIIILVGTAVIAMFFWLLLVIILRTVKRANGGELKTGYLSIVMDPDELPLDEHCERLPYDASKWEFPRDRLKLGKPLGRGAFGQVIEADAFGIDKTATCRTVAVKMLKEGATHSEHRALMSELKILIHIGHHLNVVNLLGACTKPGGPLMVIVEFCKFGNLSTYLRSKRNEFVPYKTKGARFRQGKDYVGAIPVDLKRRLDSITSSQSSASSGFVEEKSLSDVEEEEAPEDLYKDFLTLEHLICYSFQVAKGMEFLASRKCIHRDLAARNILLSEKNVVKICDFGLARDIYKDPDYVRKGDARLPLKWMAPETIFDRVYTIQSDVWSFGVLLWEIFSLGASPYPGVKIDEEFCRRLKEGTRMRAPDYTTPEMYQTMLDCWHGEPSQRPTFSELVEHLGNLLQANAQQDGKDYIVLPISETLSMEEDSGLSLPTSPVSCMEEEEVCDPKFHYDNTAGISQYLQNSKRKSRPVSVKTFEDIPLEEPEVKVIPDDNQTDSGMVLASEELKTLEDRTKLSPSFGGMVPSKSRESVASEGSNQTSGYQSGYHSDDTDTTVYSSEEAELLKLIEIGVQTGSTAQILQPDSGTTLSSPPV

Regarding `Cc1nc2ccccc2n(CC(=O)Nc2ccc(C(=O)NCCc3ccccc3)cc2)c1=O` [Compound 27b, 4-(2-(3-Methyl-2-oxoquinoxalin-1(2H)-yl)acetamido)-N-phenethylbenzamide], the melting point was 283 to 285 °C. Moreover, the half-inhibitory concentration (IC50) against human VEGFR-2 came to 0.0225 µM. For the same compound, the IC50 in the data set on HepG2 was determined as 41.5 µM. In the data set with MCF-7, the IC50 was found to be 62.3 µM and the “Activity against the MCF-7 cell line (in words)” value (from here on “Activity … (in words)”) is “inactive”.
Taken in the same sequence, the figures for `COc1cccc(OC)c1NC(=O)c1ccc(NC(=O)Cn2c(=O)c(C)nc3ccccc32)cc1` [Compound 27c, N-(2,6-Dimethoxyphenyl)-4-(2-(3-methyl-2-oxoquinoxalin-1(2H)-yl)acetamido)-benzamide] were greater than 300 °C, 0.0116 µM, 42.6 µM, 57.2 µM and “inactive”.
`Cc1cccc(C)c1NC(=O)c1ccc(NC(=O)Cn2c(=O)c(C)nc3ccccc32)cc1` [Compound 27d, N-(2,6-Dimethylphenyl)-4-(2-(3-methyl-2-oxoquinoxalin-1(2H)-yl)acetamido)-benzamide] returned a melting point of 240 to 242 °C. The compound also displayed an IC50 on human VEGFR-2 of 0.0218 µM. Further, the IC50 in the data set on HepG2 worked out at 24.1 µM. Moreover, the IC50 with MCF-7 amounted to 30.7 µM.
For the compound `Cc1nc2ccccc2n(CC(=O)Nc2ccc(C(=O)Nc3ccc([N+](=O)[O-])cc3)cc2)c1=O` [Compound 27e, 4-(2-(3-Methyl-2-oxoquinoxalin-1(2H)-yl)acetamido)-N-(4-nitrophenyl)benzamide], the melting point is greater than 300 °C. This compound registered an IC50 against human VEGFR-2 of 0.0217 µM. Also, in the data set with HepG2, the IC50 was 27.5 µM. Also, the 50% inhibitory concentration (IC50) in the data set on MCF-7 is 42.3 µM.
Taken in the same sequence, the figures for `Cc1nc2ccccc2n(CC(=O)Nc2ccc(C(=O)Nc3ccc(Cl)cn3)cc2)c1=O` [Compound 27f, N-(5-Chloropyridin-2-yl)-4-(2-(3-methyl-2-oxoquinoxalin-1(2H)-yl)acetamido)-benzamide] were greater than 300 °C, 0.0107 µM, 19.7 µM and 22.7 µM.
`Cc1nc2ccccc2n(CC(=O)Nc2ccc(C(=O)NNC(=O)c3ccc([N+](=O)[O-])cc3)cc2)c1=O` [Compound 28, 2-(3-Methyl-2-oxoquinoxalin-1(2H)-yl)-N-(4-(2-(4-nitrobenzoyl)hydrazine-1-carbonyl)phenyl)acetamide]: the values for the IC50 against human VEGFR-2, with HepG2 and with MCF-7 were 0.0042 µM, 11.7 µM and 17.2 µM, respectively.
On the same counts, the results for `Cc1nc2ccccc2n(CC(=O)Nc2ccc(C(=O)NNc3ccccc3)cc2)c1=O` [Compound 29, 2-(3-Methyl-2-oxoquinoxalin-1(2H)-yl)-N-(4-(2-phenylhydrazine-1-carbonyl)phenyl) acetamide] are 0.0098 µM, 17.5 µM and 23.5 µM.
For the compound `Cc1nc2ccccc2nc1SCC(=O)Nc1ccc(C(=O)NC(C)(C)C)cc1` [Compound 30a, N-(tert-Butyl)-4-(2-((3-methylquinoxalin-2-yl)thio)acetamido)benzamide], the melting point fell in the range of 231 to 233 °C. At human VEGFR-2, this compound showed an IC50 of 0.0298 µM. The IC50 in the data set on HepG2 was determined as 43.7 µM. Also, in the data set on MCF-7, the IC50 came to 61.9 µM and the “Activity … (in words)” value is “inactive”.
As for `Cc1nc2ccccc2nc1SCC(=O)Nc1ccc(C(=O)NC2CCCCC2)cc1` [Compound 30b, N-Cyclohexyl-4-(2-((3-methylquinoxalin-2-yl)thio)acetamido)benzamide], the IC50 against human VEGFR-2 was 0.0087 µM; with HepG2, 34.2 µM; with MCF-7, 43.8 µM.
In turn, `Cc1nc2ccccc2nc1SCC(=O)Nc1ccc(C(=O)NCc2ccccc2)cc1` [Compound 30c, N-benzyl-4-(2-((3-methylquinoxalin-2-yl)thio)acetamido)benzamide] displayed a melting point of 235 to 237 °C. At human VEGFR-2, this compound returned an IC50 of 0.0138 µM. Further, the IC50 in the data set on HepG2 was 34.1 µM. In the data set with MCF-7, the IC50 was 41.9 µM.
With `Cc1nc2ccccc2nc1SCC(=O)Nc1ccc(C(=O)NCCc2ccccc2)cc1` [Compound 30d, 4-(2-((3-Methylquinoxalin-2-yl)thio)acetamido)-N-phenethylbenzamide], the melting point is 220 to 222 °C. Also, the midpoint of inhibition at human VEGFR-2, the IC50, lay at 0.0157 µM. Also, in the data set on HepG2, the IC50 was 32.4 µM. In addition, the IC50 in the data set on MCF-7 was found to be 42.7 µM.
Regarding `Cc1nc2ccccc2nc1SCC(=O)Nc1ccc(C(=O)Nc2ccccc2)cc1` [Compound 30e, 4-(2-((3-Methylquinoxalin-2-yl)thio)acetamido)-N-phenylbenzamide], the IC50 on human VEGFR-2 was determined as 0.0274 µM; in the data set with HepG2 it was 24.3 µM; in the data set with MCF-7 it was 31.3 µM.
As for `Cc1ccccc1NC(=O)c1ccc(NC(=O)CSc2nc3ccccc3nc2C)cc1` [Compound 30f, 4-(2-((3-Methylquinoxalin-2-yl)thio)acetamido)-N-(o-tolyl)benzamide], the IC50 at human VEGFR-2 came to 0.0049 µM; in the data set with HepG2, 10.7 µM; in data set [1] it was 15.7 µM; with MCF-7, 18.1 µM. Also, the “Cytotoxic activity against cancer HepG2 cell line more than against normal hepatic cells” value with primary rat hepatocytes is reported as 1.5 fold.
As to `COc1cccc(OC)c1NC(=O)c1ccc(NC(=O)CSc2nc3ccccc3nc2C)cc1` [Compound 30g, N-(2,6-Dimethoxyphenyl)-4-(2-((3-methylquinoxalin-2-yl)thio)acetamido) benzamide], the IC50 is 0.0389 µM on human VEGFR-2, 40.8 µM in the data set on HepG2 and 61.7 µM in the data set with MCF-7. For the same compound, the “Activity … (in words)” value in the data set on MCF-7 was “inactive”.
The compound `Cc1nc2ccccc2nc1SCC(=O)Nc1ccc(C(=O)Nc2ccc([N+](=O)[O-])cc2)cc1` [Compound 30h, 4-(2-((3-Methylquinoxalin-2-yl)thio)acetamido)-N-(4-nitrophenyl)benzamide] showed a melting point of 200 to 202 °C. On human VEGFR-2, this compound gave an IC50 of 0.0118 µM. Also, the IC50 with HepG2 was 17.7 µM. Also, the IC50 in the data set with MCF-7 worked out at 21.3 µM.
Consider `Cc1nc2ccccc2nc1SCC(=O)Nc1ccc(C(=O)Nc2ccc(Cl)cn2)cc1` [Compound 30i, N-(5-Chloropyridin-2-yl)-4-(2-((3-methylquinoxalin-2-yl)thio)acetamido)benzamide], for which the IC50 at human VEGFR-2 is 0.0061 µM; in the data set with HepG2 it was 12.7 µM; in the data set on MCF-7, 17.2 µM.
Taken in the same sequence, the figures for `Cc1nc2ccccc2nc1SCC(=O)Nc1ccc(C(=O)NNC(=O)c2ccccc2)cc1` [Compound 31a, N-(4-(2-benzoylhydrazine-1-carbonyl)phenyl)-2-((3-methylquinoxalin-2-yl)thio) acetamide] were 0.0107 µM, 18.7 µM and 23.1 µM.
In turn, `Cc1nc2ccccc2nc1SCC(=O)Nc1ccc(C(=O)NNC(=O)c2ccc([N+](=O)[O-])cc2)cc1` [Compound 31b, 2-((3-Methylquinoxalin-2-yl)thio)-N-(4-(2-(4-nitrobenzoyl)hydrazine-1-carbonyl)phenyl) acetamide] returned a melting point of 196 to 198 °C. The midpoint of inhibition against human VEGFR-2, the IC50, lay at 0.0051 µM. In the data set with HepG2, the IC50 came out at 13.7 µM. Also, the IC50 in the data set on MCF-7 was found to be 19.2 µM.
Turning to `Cc1nc2ccccc2nc1SCC(=O)Nc1ccc(C(=O)NNc2ccccc2)cc1` [Compound 32, 2-((3-Methylquinoxalin-2-yl)thio)-N-(4-(2-phenylhydrazine-1-carbonyl)phenyl) acetamide], the figures for the IC50 against human VEGFR-2, in the data set with HepG2 and in the data set on MCF-7 were 0.0238 µM, 41.3 µM and 59.5 µM, respectively. Besides, in the data set with MCF-7, the “Activity … (in words)” value is “inactive”.
`CNC(=O)c1cc(Oc2ccc(NC(=O)Nc3ccc(Cl)c(C(F)(F)F)c3)cc2)ccn1` [Sorafenib, reference compound]: the values for the IC50 (with HepG2; in data set [1]) were 2.17 µM and 17.3 µM, respectively. In the data set on primary rat hepatocytes, the “Cytotoxic activity against cancer HepG2 cell line more than against normal hepatic cells” value is 8 fold.

Broadly, the IC50 is the concentration at which inhibition is half-maximal. Usually melting point stands for the temperature of the solid-liquid transition.
